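The compound was tested at five concentrations on cells cultured in 96-well plates, with a 48-hour exposure period. The concentration for 50% growth inhibition is given as GI50.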 Calls of active or inactive are those of the source. Cut-off read from the data, not from the text of the source: active = GI50 up to about 1.1 µM and inactive = higher.
Experiments:
Test in all cases: NCI anticancer screen, dose series, 48 h
SK-MEL-5 = test system: SK-MEL-5
SW-620 = test system: SW-620
DMS-114 = test system: DMS-114
M19-MEL = test system: M19-MEL
HL-60 = test system: HL-60
U-251 = test system: U-251
DLD-1 = test system: DLD-1
SF-295 = test system: SF-295
OVCAR-3 = test system: OVCAR-3
COLO 205 = test system: COLO 205
MOLT-4 = test system: MOLT-4
RXF 631 = test system: RXF 631
UO-31 = test system: UO-31
TK-10 = test system: TK-10
UACC-257 = test system: UACC-257
SK-MEL-2 = test system: SK-MEL-2
HOP-62 = test system: HOP-62
CCRF-CEM = test system: CCRF-CEM
LOX IMVI = test system: LOX IMVI
HCT-116 = test system: HCT-116
A498 = test system: A498
HCT-15 = test system: HCT-15
M14 = test system: M14
OVCAR-5 = test system: OVCAR-5
ACHN = test system: ACHN
HCC 2998 = test system: HCC 2998
DMS-273 = test system: DMS-273
786-0 = test system: 786-0
SF-539 = test system: SF-539
KM-20L2 = test system: KM-20L2
LXFL 529 = test system: LXFL 529
SNB-78 = test system: SNB-78
EKVX = test system: EKVX
RPMI-8226 = test system: RPMI-8226
SNB-19 = test system: SNB-19
OVCAR-8 = test system: OVCAR-8
UACC-62 = test system: UACC-62
HOP-92 = test system: HOP-92
SK-OV-3 = test system: SK-OV-3
NCI-H460 = test system: NCI-H460
Malme-3M = test system: Malme-3M
CAKI-1 = test system: CAKI-1
IGROV-1 = test system: IGROV-1
A549 = test system: A549
K562 = test system: K562
OVCAR-4 = test system: OVCAR-4
KM12 = test system: KM12
SR = test system: SR
SN12C = test system: SN12C
XF498 = test system: XF498
HOP-18 = test system: HOP-18
NCI-H23 = test system: NCI-H23
BT-549 = test system: BT-549
SF-268 = test system: SF-268
PC-3 = test system: PC-3
SNB-75 = test system: SNB-75
T47D = test system: T47D
NCI-H522 = test system: NCI-H522
MDA-N = test system: MDA-N
NCI/ADR-RES = test system: NCI/ADR-RES
MDA-MB-231 = test system: MDA-MB-231
SK-MEL-28 = test system: SK-MEL-28
Hs-578T = test system: Hs-578T
RXF 393 = test system: RXF 393
MDA-MB-435 = test system: MDA-MB-435
NCI-H226 = test system: NCI-H226
DU-145 = test system: DU-145
MCF7 = test system: MCF7
HT-29 = test system: HT-29

**Q.** What does the source list for `NS(=O)(=O)c1cc2c(cc1Cl)NC(/C(=N/NC(=O)c1ccncc1)C1C(=O)NC(=O)NC1=O)=NS2(=O)=O`?
**A.** GI50 (SK-MEL-5): > 100 µM (inactive); GI50 (SW-620): > 100 µM (inactive); GI50 (DMS-114): > 100 µM (inactive); GI50 (M19-MEL): > 100 µM (inactive); GI50 (HL-60): > 100 µM (inactive); GI50 (U-251): > 100 µM (inactive); GI50 (DLD-1): > 100 µM (inactive); GI50 (SF-295): > 100 µM (inactive); GI50 (OVCAR-3): > 100 µM (inactive); GI50 (COLO 205): > 100 µM (inactive); GI50 (MOLT-4): > 100 µM (inactive); GI50 (RXF 631): > 100 µM (inactive); GI50 (UO-31): 95.3 µM (inactive); GI50 (TK-10): > 100 µM (inactive); GI50 (UACC-257): > 100 µM (inactive); GI50 (SK-MEL-2): > 100 µM (inactive); GI50 (HOP-62): > 100 µM (inactive); GI50 (CCRF-CEM): > 100 µM (inactive); GI50 (LOX IMVI): > 100 µM (inactive); GI50 (HCT-116): 55.8 µM (inactive); GI50 (A498): > 100 µM (inactive); GI50 (HCT-15): > 100 µM; GI50 (M14): > 100 µM (inactive); GI50 (OVCAR-5): > 100 µM (inactive); GI50 (ACHN): > 100 µM (inactive); GI50 (HCC 2998): > 100 µM (inactive); GI50 (DMS-273): > 100 µM (inactive); GI50 (786-0): > 100 µM (inactive); GI50 (SF-539): > 100 µM (inactive); GI50 (KM-20L2): > 100 µM (inactive); GI50 (LXFL 529): > 100 µM (inactive); GI50 (SNB-78): > 100 µM (inactive); GI50 (EKVX): > 100 µM (inactive); GI50 (RPMI-8226): > 100 µM (inactive); GI50 (SNB-19): 83.6 µM (inactive); GI50 (OVCAR-8): > 100 µM (inactive); GI50 (UACC-62): > 100 µM (inactive); GI50 (HOP-92): > 100 µM (inactive); GI50 (SK-OV-3): > 100 µM (inactive); GI50 (NCI-H460): > 100 µM (inactive); GI50 (Malme-3M): > 100 µM (inactive); GI50 (CAKI-1): > 100 µM (inactive); GI50 (IGROV-1): > 100 µM (inactive); GI50 (A549): > 100 µM (inactive); GI50 (K562): > 100 µM (inactive); GI50 (OVCAR-4): > 100 µM (inactive); GI50 (KM12): > 100 µM (inactive)

**Q.** Which results are given for `O=C1c2nc3n(c2C(=O)c2c1nc1n2CCC1)CCC3`?
**A.** GI50 (SK-MEL-5): 1.44 µM (inactive); GI50 (SW-620): 5.13 µM (inactive); GI50 (DMS-114): 2.04 µM (inactive); GI50 (M19-MEL): 0.184 µM (active); GI50 (SR): 3.01 µM (inactive); GI50 (SN12C): 3.64 µM (inactive); GI50 (XF498): 6.38 µM (inactive); GI50 (U-251): 6.79 µM (inactive); GI50 (DLD-1): 5.09 µM (inactive); GI50 (SF-295): 5.37 µM (inactive); GI50 (OVCAR-3): 2.71 µM (inactive); GI50 (HOP-18): 14 µM (inactive); GI50 (NCI-H23): 2.49 µM (inactive); GI50 (BT-549): > 10 µM (inactive); GI50 (COLO 205): 5.89 µM (inactive); GI50 (MOLT-4): 5.46 µM (inactive); GI50 (SF-268): 8.28 µM (inactive); GI50 (UO-31): 18.8 µM (inactive); GI50 (PC-3): > 10 µM (inactive); GI50 (SNB-75): 15.2 µM (inactive); GI50 (TK-10): 27.6 µM (inactive); GI50 (UACC-257): 2.2 µM (inactive); GI50 (SK-MEL-2): 3.66 µM (inactive); GI50 (HOP-62): 4.62 µM (inactive); GI50 (T47D): > 10 µM (inactive); GI50 (CCRF-CEM): 6.41 µM (inactive); GI50 (NCI-H522): 6.44 µM (inactive); GI50 (LOX IMVI): 3.1 µM (inactive); GI50 (HCT-116): 3.03 µM (inactive); GI50 (A498): 16 µM (inactive); GI50 (MDA-N): 1.77 µM (inactive); GI50 (HCT-15): 5.79 µM; GI50 (M14): 1.76 µM (inactive); GI50 (NCI/ADR-RES): > 10 µM (inactive); GI50 (OVCAR-5): 16.9 µM (inactive); GI50 (MDA-MB-231): > 10 µM (inactive); GI50 (ACHN): 10.9 µM (inactive); GI50 (HCC 2998): 8.22 µM (inactive); GI50 (DMS-273): 3.3 µM (inactive); GI50 (786-0): 5.25 µM (inactive); GI50 (SF-539): 3.64 µM (inactive); GI50 (SK-MEL-28): 13.3 µM (inactive); GI50 (Hs-578T): > 10 µM (inactive); GI50 (RXF 393): 2.74 µM (inactive); GI50 (KM-20L2): 3.61 µM (inactive); GI50 (MDA-MB-435): 2.02 µM (inactive); GI50 (LXFL 529): 9.93 µM (inactive); GI50 (SNB-78): 13.8 µM (inactive); GI50 (EKVX): 15.6 µM (inactive); GI50 (RPMI-8226): 15.1 µM (inactive); GI50 (SNB-19): 14.7 µM (inactive); GI50 (OVCAR-8): 5.46 µM (inactive); GI50 (UACC-62): 1.85 µM (inactive); GI50 (HOP-92): 13.1 µM (inactive); GI50 (SK-OV-3): 23.7 µM (inactive); GI50 (NCI-H460): 1.82 µM (inactive); GI50 (Malme-3M): 0.904 µM (active); GI50 (NCI-H226): 6.97 µM (inactive); GI50 (CAKI-1): 9.35 µM (inactive); GI50 (IGROV-1): 11.5 µM (inactive); GI50 (DU-145): > 10 µM (inactive); GI50 (A549): 4.39 µM (inactive); GI50 (K562): 13 µM (inactive); GI50 (OVCAR-4): 4.71 µM (inactive); GI50 (MCF7): 2.68 µM (inactive); GI50 (HT-29): 3.14 µM (inactive); GI50 (KM12): 4.41 µM (inactive)
